The record followed here is ChEMBL document CHEMBL1146745, “Studies on anti-Helicobacter pylori agents. Part 3: A novel, efficacious cephem derivative, FR193879” (Bioorg Med Chem Lett, 2004).

For test [1], the target named is Beta-lactamase TEM (Escherichia coli) (UniProt P62593). The test can be described thus: Relative stability towards penicillinase was determined.
For test [2] the target is unchanged. The experiment in a line: Stability towards penicillinase was determined.
The target is the same in test [3]. The experiment in a line: Stability towards beta-lactamase was determined in penicillinase.

As to `NC(=O)Cc1csc(SC2=C(C(=O)O)N3C(=O)[C@@H](NC(=O)Cc4ccccc4)[C@H]3SC2)n1`, the Ratio in test [1] came to 9.38. Further, the Km in test [2] worked out at 34.8 µg/mL. For the same molecule, in test [3], the Vmax was determined as 1.18.

Usually Km stands for the concentration of substrate that gives half-maximal velocity.
